Measurements as given in patent publication US9572349B2 (priority 2009, dated 2017).

Test system: D. citri
Format: in vivo, Diaphorina citri
Conditions: four-arm olfactometer; for Percentage of individuals that chose each compound, final choice / Percentage of individuals that chose each compound, first choice: 10 μL pure compound in two arms versus clean air in two arms, 5 min observation; for Behavioural response of psyllids to pure compound (in words): 10 μL pure compound versus clean air

SMILES	Percentage of individuals that chose each compound, final choice	Percentage of individuals that chose each compound, first choice	Behavioural response of psyllids to pure compound (in words)
C=C1CC/C=C(\C)CC[C@@H]2[C@@H]1CC2(C)C [β-caryophyllene]	32.0%	42.3%	higher level of psyllids entering the unscented arm
CC1=CC[C@H]2[C@H]3[C@@H]1[C@]2(C)CC[C@H]3C(C)C [α-copaene]	33.0%	42.0%	higher level of psyllids entering the unscented arm
